Test results reported in ChEMBL document CHEMBL1131299 (J Med Chem, 1998).

Columns and labels:
Progesterone receptor [1] = molecular target: T1, Progesterone receptor (Homo sapiens, UniProt P06401); experiment: Agonistic activity was measured for modulation of hPR-B (human progesterone receptor) in co-transfected CV-1 cells.; type: functional, cell-based
T1 sequence (P06401 whole entry): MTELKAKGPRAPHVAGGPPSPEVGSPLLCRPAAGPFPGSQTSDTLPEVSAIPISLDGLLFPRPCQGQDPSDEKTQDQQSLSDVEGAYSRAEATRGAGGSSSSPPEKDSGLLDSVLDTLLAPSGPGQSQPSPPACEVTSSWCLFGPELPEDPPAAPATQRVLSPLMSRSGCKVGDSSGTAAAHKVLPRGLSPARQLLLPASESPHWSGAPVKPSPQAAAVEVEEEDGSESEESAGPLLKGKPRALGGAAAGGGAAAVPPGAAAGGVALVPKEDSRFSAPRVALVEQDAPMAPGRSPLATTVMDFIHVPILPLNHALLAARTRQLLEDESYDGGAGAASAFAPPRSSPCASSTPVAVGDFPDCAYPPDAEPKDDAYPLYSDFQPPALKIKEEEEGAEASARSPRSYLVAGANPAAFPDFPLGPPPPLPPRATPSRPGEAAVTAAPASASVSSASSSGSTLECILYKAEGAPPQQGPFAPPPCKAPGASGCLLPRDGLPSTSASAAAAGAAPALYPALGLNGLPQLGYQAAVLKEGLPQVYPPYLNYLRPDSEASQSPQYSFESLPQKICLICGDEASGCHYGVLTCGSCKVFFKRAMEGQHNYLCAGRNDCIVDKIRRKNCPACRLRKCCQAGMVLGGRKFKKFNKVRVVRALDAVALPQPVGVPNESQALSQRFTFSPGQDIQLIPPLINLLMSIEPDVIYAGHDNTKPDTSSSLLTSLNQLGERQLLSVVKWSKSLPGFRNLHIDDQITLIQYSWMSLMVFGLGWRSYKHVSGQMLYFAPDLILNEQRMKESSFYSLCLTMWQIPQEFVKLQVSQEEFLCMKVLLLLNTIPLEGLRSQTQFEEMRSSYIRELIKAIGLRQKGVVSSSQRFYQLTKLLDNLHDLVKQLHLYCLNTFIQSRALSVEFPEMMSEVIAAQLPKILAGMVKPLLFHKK

Progesterone receptor [2] = molecular target: T1, Progesterone receptor; experiment: The binding affinity measured using baculovirus-expressed hPR-A in sf21 cells.
Rattus norvegicus = species on record: Rattus norvegicus; experiment: Compound was Dawley rats expressed as response to MPA at […]; type: functional

Structure (SMILES): CC1=CC(C)(C)Nc2ccc3c(c21)C(c1cccc(F)c1)Oc1ccc(Cl)cc1-3 (stereo not drawn)
- EC50 (Progesterone receptor [1]): 3.7 nM
- Ki (Progesterone receptor [2]): 0.34 nM

Structure (SMILES): CC1=CC(C)(C)Nc2ccc3c(c21)C(c1cccc(Cl)c1)Oc1ccc(F)cc1-3 (stereo not drawn)
- EC50 (Progesterone receptor [1]): 2.8 nM
- Ki (Progesterone receptor [2]): 0.32 nM

Structure (SMILES): CC1=CC(C)(C)Nc2ccc3c(c21)C(c1ccccc1)Oc1ccc(Cl)cc1-3 (stereo not drawn)
- EC50 (Progesterone receptor [1]): 6.9 nM
- Ki (Progesterone receptor [2]): 0.74 nM

Structure (SMILES): CC1=CC(C)(C)Nc2ccc3c(c21)C(c1cccc(Cl)c1)Oc1ccc(Cl)cc1-3 (stereo not drawn)
- EC50 (Progesterone receptor [1]): 3.6 nM
- Ki (Progesterone receptor [2]): 0.48 nM

Structure (SMILES): CC1=CC(C)(C)Nc2ccc3c(c21)C(c1ccccc1)Oc1ccc(F)cc1-3 (stereo not drawn)
- EC50 (Progesterone receptor [1]): 7.4 nM
- Ki (Progesterone receptor [2]): 2.2 nM

Structure (SMILES): CC1=CC(C)(C)Nc2ccc3c(c21)C(c1ccc(Cl)cc1)Oc1ccc(Cl)cc1-3 (stereo not drawn)
- EC50 (Progesterone receptor [1]): 9 nM
- Ki (Progesterone receptor [2]): 0.59 nM
- Efficacy (Rattus norvegicus): 108%

Structure (SMILES): CC1=CC(C)(C)Nc2ccc3c(c21)C(c1cccc(C(F)(F)F)c1)Oc1ccc(Cl)cc1-3 (stereo not drawn)
- Ki (Progesterone receptor [2]): 1.1 nM

Structure (SMILES): CC1=CC(C)(C)Nc2ccc3c(c21)C(c1ccc(Cl)cc1)Oc1ccccc1-3 (stereo not drawn)
- EC50 (Progesterone receptor [1]): 15 nM

Structure (SMILES): COc1ccc(C2Oc3ccc(F)cc3-c3ccc4c(c32)C(C)=CC(C)(C)N4)cc1 (stereo not drawn)
- EC50 (Progesterone receptor [1]): 270 nM
- Ki (Progesterone receptor [2]): 2.7 nM

Structure (SMILES): CC1=CC(C)(C)Nc2ccc3c(c21)C(c1ccc(Br)cc1)Oc1ccc(Cl)cc1-3 (stereo not drawn)
- EC50 (Progesterone receptor [1]): 5.2 nM
- Ki (Progesterone receptor [2]): 0.59 nM
- Efficacy (Rattus norvegicus): 60%

Structure (SMILES): CC1=CC(C)(C)Nc2ccc3c(c21)C(c1ccc(F)c(C)c1)Oc1ccc(Cl)cc1-3 (stereo not drawn)
- EC50 (Progesterone receptor [1]): 9.5 nM
- Ki (Progesterone receptor [2]): 1.3 nM

Structure (SMILES): COc1ccc(C2Oc3ccc(Cl)cc3-c3ccc4c(c32)C(C)=CC(C)(C)N4)cc1 (stereo not drawn)
- EC50 (Progesterone receptor [1]): 13 nM
- Ki (Progesterone receptor [2]): 0.93 nM

Structure (SMILES): CC1=CC(C)(C)Nc2ccc3c(c21)C(c1cccc(C)c1)Oc1ccc(F)cc1-3 (stereo not drawn)
- EC50 (Progesterone receptor [1]): 5 nM
- Ki (Progesterone receptor [2]): 0.37 nM

Structure (SMILES): COc1ccc2c(c1)-c1ccc3c(c1C(c1ccc(Cl)cc1)O2)C(C)=CC(C)(C)N3 (stereo not drawn)
- EC50 (Progesterone receptor [1]): 3.1 nM
- Ki (Progesterone receptor [2]): 2.4 nM

Structure (SMILES): CC1=CC(C)(C)Nc2ccc3c(c21)C(c1ccc(Cl)c(C)c1)Oc1ccc(Cl)cc1-3 (stereo not drawn)
- Ki (Progesterone receptor [2]): 0.5 nM

Structure (SMILES): CC1=CC(C)(C)Nc2ccc3c(c21)C(c1cccc(C)c1)Oc1ccc(Cl)cc1-3 (stereo not drawn)
- EC50 (Progesterone receptor [1]): 7.1 nM
- Ki (Progesterone receptor [2]): 0.55 nM

Structure (SMILES): CC(=O)O[C@]1(C(C)=O)CC[C@H]2[C@@H]3C[C@H](C)C4=CC(=O)CC[C@]4(C)[C@H]3CC[C@@]21C [MEDROXYPROGESTERONE ACETATE]
- Efficacy (Rattus norvegicus): 100%

Structure (SMILES): CC1=CC(C)(C)Nc2ccc3c(c21)C(c1cccc(C(F)(F)F)c1)Oc1ccc(F)cc1-3 (stereo not drawn)
- EC50 (Progesterone receptor [1]): 10 nM
- Ki (Progesterone receptor [2]): 0.78 nM

Structure (SMILES): CC1=CC(C)(C)Nc2ccc3c(c21)C(c1ccc(F)c(C)c1)Oc1ccc(F)cc1-3 (stereo not drawn)
- EC50 (Progesterone receptor [1]): 15 nM
- Ki (Progesterone receptor [2]): 1.3 nM

Structure (SMILES): CC1=CC(C)(C)Nc2ccc3c(c21)C(c1ccc(Cl)cc1)Oc1cc(F)ccc1-3 (stereo not drawn)
- EC50 (Progesterone receptor [1]): 10 nM
- Ki (Progesterone receptor [2]): 2.7 nM

Structure (SMILES): CC1=CC(C)(C)Nc2ccc3c(c21)C(c1ccc(Cl)c(C)c1)Oc1ccc(F)cc1-3 (stereo not drawn)
- EC50 (Progesterone receptor [1]): 2.7 nM
- Ki (Progesterone receptor [2]): 0.49 nM

Structure (SMILES): CC1=CC(C)(C)Nc2ccc3c(c21)C(c1ccc(Cl)cc1)Oc1ccc(F)cc1-3 (stereo not drawn)
- EC50 (Progesterone receptor [1]): 8.1 nM
- Ki (Progesterone receptor [2]): 0.32 nM
- Efficacy (Rattus norvegicus): 116%
